From paper PMC3840065, “Structural Insights into the Mechanism for Recognizing Substrate of the Cytochrome P450 Enzyme TxtE” (PLoS ONE, 2013)

Tests used:
Test in all cases: UV-vis difference titration (type I shift, […] nm)
Format in all cases: binding
TxtE [1] = molecular target: T1, TxtE (Streptomyces scabiei, UniProt C9ZDC6, Y89F)
T1 construct: full length, 406 residues, pET-28a, N-terminal His-tag with thrombin site (tag kept), E. coli Rosetta(DE3) pLysS, monomer in solution

TxtE [2] = molecular target: T2, TxtE (Streptomyces scabiei, UniProt C9ZDC6, N293L)
T2 construct: full length, 406 residues, pET-28a, N-terminal His-tag with thrombin site (tag kept), E. coli Rosetta(DE3) pLysS, monomer in solution

TxtE [3] = molecular target: T3, TxtE (Streptomyces scabiei, UniProt C9ZDC6)
T3 construct: full length, 406 residues, pET-28a, N-terminal His-tag with thrombin site (tag kept), E. coli Rosetta(DE3) pLysS, monomer in solution
T3 sequence (C9ZDC6 entry or part of it): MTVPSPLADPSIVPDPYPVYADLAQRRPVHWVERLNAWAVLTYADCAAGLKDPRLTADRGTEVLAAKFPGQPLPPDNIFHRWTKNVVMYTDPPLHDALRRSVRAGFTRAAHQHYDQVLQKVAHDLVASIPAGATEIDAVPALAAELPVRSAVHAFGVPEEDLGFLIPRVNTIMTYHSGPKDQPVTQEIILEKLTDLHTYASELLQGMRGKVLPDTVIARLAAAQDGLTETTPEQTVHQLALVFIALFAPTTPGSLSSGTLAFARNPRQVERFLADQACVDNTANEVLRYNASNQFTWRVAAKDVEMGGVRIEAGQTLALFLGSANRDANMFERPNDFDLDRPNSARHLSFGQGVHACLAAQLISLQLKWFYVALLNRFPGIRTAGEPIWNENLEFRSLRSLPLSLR

T1 sequence (C9ZDC6 whole entry Y89F): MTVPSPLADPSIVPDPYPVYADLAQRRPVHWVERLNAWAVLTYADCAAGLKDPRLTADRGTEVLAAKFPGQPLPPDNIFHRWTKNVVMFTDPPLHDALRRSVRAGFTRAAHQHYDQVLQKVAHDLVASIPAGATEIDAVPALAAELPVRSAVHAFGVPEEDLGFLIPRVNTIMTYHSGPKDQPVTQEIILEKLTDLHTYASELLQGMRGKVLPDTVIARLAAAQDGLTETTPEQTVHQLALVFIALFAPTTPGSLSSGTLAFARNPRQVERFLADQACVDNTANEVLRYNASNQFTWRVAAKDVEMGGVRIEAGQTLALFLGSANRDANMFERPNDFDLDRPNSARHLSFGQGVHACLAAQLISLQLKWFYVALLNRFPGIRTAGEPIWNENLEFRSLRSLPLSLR
T2 sequence (C9ZDC6 whole entry N293L): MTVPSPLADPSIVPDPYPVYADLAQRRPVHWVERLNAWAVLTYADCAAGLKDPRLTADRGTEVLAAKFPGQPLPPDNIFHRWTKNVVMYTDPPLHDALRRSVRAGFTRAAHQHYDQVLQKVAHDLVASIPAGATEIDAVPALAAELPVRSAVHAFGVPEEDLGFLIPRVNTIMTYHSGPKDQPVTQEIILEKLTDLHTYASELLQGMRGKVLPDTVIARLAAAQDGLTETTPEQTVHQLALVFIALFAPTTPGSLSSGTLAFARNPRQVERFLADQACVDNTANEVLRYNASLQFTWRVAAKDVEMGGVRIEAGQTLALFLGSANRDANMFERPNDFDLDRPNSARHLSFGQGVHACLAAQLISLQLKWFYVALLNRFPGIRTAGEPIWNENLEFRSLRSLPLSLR

`N[C@@H](Cc1c[nH]c2ccccc12)C(=O)O` [L-tryptophan] gave a Kd (TxtE [1]) of 121 ± 4.3 µM, a Kd (TxtE [2]) of 1700 ± 280 µM and a Kd (TxtE [3]) of 43.6 ± 2.26 µM.
